Key:
[1] = Example 1: rat pharmacokinetics of CBD and THC from cannabis extract (1:1 THC:CBD), IV bolus and oral gavage in MCT, TG-O3 or MAG-O3 carrier oil; details: intravenous administration of cannabis extract in lipid-free solution, at 5 minutes (data not shown)
[2] = Example 2: rat pharmacokinetics of CBD and THC from cannabis extract (1:1 THC:CBD), IV bolus and oral gavage in MCT, TG-O3 or krill oil (PL-O3); format: in vivo; details: intravenous administration of cannabis extract in lipid-free solution, at 5 minutes (data not shown)
Excerpt: The study design and methods of analyses of the pre-clinical study were the same as disclosed in Example 1.
Values are expressed as mean±SEM.

| Compound | peak plasma concentration [1] [ng/mL] | peak plasma concentration [2] [ng/mL] |
| --- | --- | --- |
| CCCCCc1cc(O)c2c(c1)OC(C)(C)[C@@H]1CCC(C)=C[C@@H]21 [THC, Δ^9tetrahydrocannabinol] | 864 ± 194 | 864 ± 194 |
| C=C(C)[C@@H]1CCC(C)=C[C@H]1c1c(O)cc(CCCCC)cc1O [CBD, cannabidiol] | 1193 ± 290 | 1193 ± 290 |

Source: patent US20220288014A1, “ORAL FORMULATIONS OF CANNABIS EXTRACTS AND METHODS OF MAKING SAME” (Neptune Wellness Solutions Inc., priority 2019, published 2022)
